Structures are written as SMILES. A value given as a limit tells only on which side of the number the result lay.

In patent publication US9040518B2, “Chemical compounds” (GlaxoSmithKline LLC, priority 2010, dated 2015) one finds IC50 data, which are given here for 1 compound.

The assay deals with ileal bile acid cotransporter (iBAT) (Homo sapiens (Human), UniProt Q12908). Nature of the assay: Human iBAT inhibition: [3H]-taurocholate uptake into HEK293 cells expressing human iBAT. Type of assay: cell-based. To be noted: HEK293 cells transduced with human iBAT Bacmam virus, 90 minutes at ambient temperature, mean of at least 2 datapoints.
ileal bile acid cotransporter (iBAT), sequence (Q12908 whole entry): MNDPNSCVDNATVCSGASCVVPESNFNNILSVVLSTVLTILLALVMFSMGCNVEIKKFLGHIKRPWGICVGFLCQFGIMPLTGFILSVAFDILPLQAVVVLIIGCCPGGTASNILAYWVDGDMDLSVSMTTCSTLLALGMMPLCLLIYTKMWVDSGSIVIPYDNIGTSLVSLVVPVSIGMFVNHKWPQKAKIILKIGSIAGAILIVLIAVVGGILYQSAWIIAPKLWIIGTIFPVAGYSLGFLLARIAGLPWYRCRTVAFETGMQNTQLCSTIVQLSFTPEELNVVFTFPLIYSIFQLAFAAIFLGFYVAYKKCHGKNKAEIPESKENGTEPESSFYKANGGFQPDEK

As a reminder, the IC50 is the midpoint of a concentration-inhibition curve. The low end stands for greater potency, the high end for weaker potency. The compound `CCCC[C@]1(CC)CS(=O)(=O)c2cc(C(CC(=O)O)CC(=O)O)c(OC)cc2[C@@H](c2ccccc2)N1` [Example 72, 3-[(3R,5R)-3-butyl-3-ethyl-7-(methyloxy)-1,1-dioxido-5-phenyl-2,3,4,5-tetrahydro-1,4-benzothiazepin-8-yl]pentanedioic acid] showed an IC50 above 3 µM.
